Source: patent US11135186B2, “Regulators of the endoplasmic reticulum proteostasis network” (The Scripps Research Institute, priority 2015, dated 2021)

How the values were obtained:
[1] = test system: ERSE-FLuc reporter (ATF6 arm of the UPR); experiment: ERSE-FLuc reporter, 1536-well confirmation screen in HEK293T-Rex cells; assay type: cell-based; conditions: % Tg (500 nM) activation, triplicate confirmation screen at 6.8 μM, 18 h
Source text: We employed a transcriptional reporter that quantifies activation of the ATF6 arm of the UPR in HEK293T-Rex cells. This reporter contains a fragment of the UPR-inducible BiP promoter, including three ER stress-responsive elements (ERSEs), driving expression of firefly luciferase (ERSE-FLuc; FIG. 1a)^34. We previously employed this reporter for a small-scale screen using the 1280 member compound Library of Pharmacologic Active Compounds (LoPAC) to find small molecules that activate the UPR^8. […] Optimization and miniaturization of this assay to 1536-well format was performed at the Scripps Research Institute Molecule Screening Center (SRIMSC).
(§1) HEK293T-Rex cells incorporating either the ERSE-FLuc or XBP1s-RLuc reporters were collected by trypsinization and resuspended at a density of 500,000 cells per mL. The assay was started by dispensing 5 μL of cell suspension into each well of white, solid-bottom 1536-well plates using a flying reagent dispenser (FRD) and placed into an online incubator 3 h. Cells were then treated with 34 nL/well of either test compounds to give final concentrations of 6.8 μM, DMSO (Low control, final concentration 0.68%, 0% activation) or […] of Delta-7 thapsigargin (High control, final concentration 500 nM, 100% activation). Plates were incubated for 18 h at 37° C., removed from the incubator and equilibrated to room temperature for 10 min. Luciferase activity was detected by addition of 5 μL of ONE-Glo reagent (Promega) to each well. After a 10 min incubation time, light emission was measured with the ViewLux reader (PerkinElmer). The percent activation of each test compound was calculated as follows: % Activation=100*(Test Compound−Median Low Control)/(Median High Control ˜Median Low Control).

[2] = test system: ERSE-FLuc reporter (ATF6 arm of the UPR); experiment: ERSE-FLuc reporter, 96-well, HEK293T-Rex cells (SAR and S1P inhibition); assay type: cell-based; conditions: for ERSE reporter activity relative to 147: HEK293T-Rex, 10 μM
Procedure: HEK293T-Rex cells incorporating the ERSE-FLuc reporter and HEK293^DAX cells were plated approximately 20,000 cells/well in flat-bottomed, black 96-well assay plates (Costar, Corning, Inc.) overnight prior to compound administration. Cells were treated with compounds as described for 12-18 h then the plates were equilibrated to room temperature and 50 μL of SteadyLite (PerkinElmer) was added to each well. Luminescence activity was measured in a Safire II microplate reader with a 1000 ms integration time.

[3] = test system: BiP expression in ALMC-2 cells; experiment: BiP qPCR in ALMC-2 cells; assay type: cell-based, human; conditions: 10 μM, 6 h
Procedure: Cells were treated as described at 37° C., washed with Dulbecco's phosphate-buffered saline (Gibco), and then RNA was extracted using the RNeasy Mini Kit (Qiagen). qPCR reactions were performed on cDNA prepared from 500 ng of total cellular RNA using the QuantiTect Reverse Transcription Kit (Qiagen). The FastStart Universal SYBR Green Master Mix (Roche), cDNA, and appropriate human primers^4 or mouse primers (BiP; […] (SEQ ID NO: 5) and […] (SEQ ID NO: 6) purchased from Integrated DNA Technologies were used for amplifications (45 cycles of 1 min at 95° C., 10 s at 95° C., 30 sec at 60° C.) in an ABI 7900HT Fast Real Time PCR machine. Primer integrity was assessed by a thermal melt to confirm homogeneity and the absence of primer dimers. Transcripts were normalized to the housekeeping gene Rplp2 and all measurements were performed in triplicate. Data were analyzed using the RQ Manager and DataAssist 2.0 softwares (ABI).

[4] = test system: XBP1-RLuc reporter (IRE1/XBP1s arm of the UPR); experiment: XBP1-RLuc splicing reporter, 1536-well screen in HEK293T-Rex cells; assay type: cell-based; conditions: % Tg (500 nM) activation, triplicate confirmation screen at 6.8 μM, 18 h
Source text: To evaluate the selectivity of our screening hits for ATF6, we employed an alternative luciferase reporter to measure activation of the IRE1/XBP1s arm of the UPR. This reporter contains Renilla luciferase (RLuc) expressed out of frame downstream of the XBP1 splice site, preventing RLuc translation in the absence of stress (FIG. 2b)^36,37. In response to IRE1 activation, the 26-nt XBP1 intron is removed, producing a frame shift that allows for RLuc translation and activity. Robust dose-dependent activation of the XBP1-RLuc reporter upon addition of the ER stressors Tg and Tm was confirmed in HEK293T-Rex cells stably expressing the XBP1-RLuc reporter, producing a Z′ score of 0.75 for Tg.
as §1

HEK293T-Rex cells = experiment: mRNA-Seq transcriptional profiling and geneset analysis in HEK293T-Rex cells; assay type: cell-based, human; conditions: 6 h, compounds 10 μM, Tg 1 μM
Procedure: HEK293T-Rex and HEK293^DAX cells in 12-well plates were treated for 6 h with vehicle, 1 μM Tg, 10 μM TMP (in HEK293^DAX), or 10 μM 132, 147 or 263 in biological triplicate at 37° C. Cells were harvested, and RNA was extracted using the RNeasy Mini Kit (Qiagen). Total RNA was quantified using NanoDrop (ND-1000). Samples were run on the Illuina HiSeq system.
Single end, 100 bp-long reads from RNA-Seq experiments were aligned to the GRCh37.p13 human genome reference assembly using SeqMan NGen 11.2.1 (DNAStar, Inc.). The assembly data were then imported into ArrayStar with QSeq (DNAStar, Inc.) to quantify the gene expression levels. The sequence counts were normalized to reads per kilobase per million (RPKM) after filtering out non-mRNA sequence features. The statistical significance of the difference between the expression levels of a gene under different conditions was assessed using a Student's t-test with the Benjamini-Hochberg multiple testing correction.
ATF6- and XBP1s-selective target genes were identified from transcriptional profiles of HEK293D^X cells following stress-independent activation of TMP-dependent DHFR-ATF6 and/or tetracycline inducible XBP1s, as previously described^4. PERK-selective target genes were identified from^8. Only ATF6-, XBP1s- or PERK-selective genes induced >1.5 fold in Tg-treated samples were used in this analysis. The log transformed fold-increase of these target genes in HEK293T-Rex cells treated with the respective ER proteostasis regulators were then normalized to the log transformed fold increase of these genes induced by Tg treatment. The plots shown in FIG. 5b-e were prepared as box and whisker plots using Kaleidograph. Differential activation of the ATF6, XBP1s, and PERK genesets was assessed by one-way ANOVA and significance of pairwise comparison confirmed by unpaired t-test. An analogous strategy was employed to prepare the heat map using transcriptional data from the MGE analysis.

[5] = test system: endogenous secretory proteome of HepG2^ATF6 cells; experiment: [35S] metabolic labeling, total secreted protein from HepG2^ATF6 cells; assay type: cell-based; conditions: 15 h pretreatment, 10 μM compound or 1 μM Tg, 4 h chase
Procedure: (§2) HepG2 cells or HEK293T cells plated on poly-D-lysine coated plates were metabolically labeled in DMEM-Cys/-Met (CellGro) supplemented with glutamine, penicillin/streptomycin, dialyzed fetal bovine serum, and EasyTag EXPRESS^35S Protein Labeling Mix (Perkin Elmer) for 30 min. Cells were washed twice with complete media and incubated in prewarmed DMEM for the indicated times. Media or lysates were harvested at the indicated times. Lysates were prepared in RIPA buffer with fresh protease inhibitor cocktail (Roche). FLAG tagged TTR variants or ALLC were immunopurified using M1 anti-FLAG agarose beads (Sigma-Aldrich) and washed three times with RIPA buffer. The immunoisolates were then eluted by boiling in Laemmli buffer and separated on SDS-PAGE. For total secreted media, 15 uL aliquots from media incubated for 4 hrs on pulsed cells were run on a SDS-PAGE. The gels were then dried, exposed to phosphorimager plates (GE Healthcare), and imaged with a Typhoon imager. Band intensities were quantified by densitometry in ImageQuant. Fraction secreted was calculated using the equation: fraction secreted=[extracellular [^35S]-LC signal at t=t/(extracellular [^35S]-LC signal at t=0+intracellular [^35S]-LC signal at t=0)]. Fraction remaining was calculated using the equation: [(extracellular [^35S]-LC signal at t=t+intracellular [^35S]-LC signal at t=t)/(extracellular [^35S]-LC signal at t=0+ intracellular [^35S]-LC signal at t=0)].

^FTTTR^WT = experiment: [35S] metabolic labeling, secretion of flag-tagged TTR^WT from HepG2^ATF6 cells; assay type: cell-based; conditions: 15 h pretreatment, 10 μM compound or 1 μM Tg, 4 h chase
Procedure: as §2

^FTTTR^A25T = experiment: [35S] metabolic labeling, secretion of flag-tagged TTR^A25T from HepG2^ATF6 cells; assay type: cell-based; conditions: 15 h pretreatment, 10 μM compound or 1 μM Tg, 4 h chase
Procedure: as §2

O=C1N/C(=C\c2ccc(O)cc2)C(=O)N1c1cccc(Cl)c1 [Compound 238]
% ERSE-FLuc activation [1]: 68.2 ± 5.7%

Cc1ccc(O)c(NC(=O)CCc2ccccc2C)c1 [RP25]
ERSE reporter activity relative to 147 [2]: slightly decrease or do not change

CCCc1cc(C(=O)Nc2cc(C)ccc2O)no1 [Compound 145]
expression of the ATF6 target gene BiP in ALMC-2 cells [3]: induced | % ERSE-FLuc activation [1]: 83.4 ± 6.3% | % XBP1-RLuc activation [4]: 24.5 ± 4.7%

Cc1ccc(O)c(NC(=O)CCc2ccccc2F)c1 [RP24]
ERSE reporter activity relative to 147 [2]: increase

Cc1ccc(O)c(NC(=O)CCc2c(Cl)cccc2Cl)c1 [RP27]
ERSE reporter activity relative to 147 [2]: decreases activity

COc1ccccc1CCC(=O)Nc1cc(C)ccc1O [RP23]
ERSE reporter activity relative to 147 [2]: slightly decrease or do not change

CCCCNNC(=O)c1ccc(Br)cc1 [Compound 5]
% ERSE-FLuc activation [1]: 60.9 ± 6.0% | % XBP1-RLuc activation [4]: 9.1 ± 0.7%

C/C=C(/C)C(=O)O[C@H]1C(C)=C2[C@H]([C@@H]1OC(=O)CCCCCCC)[C@@](C)(OC(C)=O)C[C@H](OC(=O)CCC)[C@@]1(O)[C@H]2OC(=O)[C@@]1(C)O [Tg, thapsigargin, reference compound]
BiP mRNA-Seq fold change (relative to Vh) (HEK293T-Rex cells; ATF6-selective gene): 11.6 fold | GRP94 mRNA-Seq fold change (relative to Vh) (HEK293T-Rex cells; ATF6-selective gene): 4.2 fold | SEL1L mRNA-Seq fold change (relative to Vh) (HEK293T-Rex cells; ATF6-selective gene): 7.6 fold | DNAJB1 mRNA-Seq fold change (relative to Vh) (HEK293T-Rex cells; HSF1 target gene): 0.5 fold | HSPA1A mRNA-Seq fold change (relative to Vh) (HEK293T-Rex cells; HSF1 target gene): 0.3 fold | HSPA8 mRNA-Seq fold change (relative to Vh) (HEK293T-Rex cells; HSF1 target gene): 0.3 fold | ASNS mRNA-Seq fold change (relative to Vh) (HEK293T-Rex cells; PERK target gene): 4.2 fold | DDIT3 (CHOP) mRNA-Seq fold change (relative to Vh) (HEK293T-Rex cells; PERK target gene): 13.2 fold | TrIB3 mRNA-Seq fold change (relative to Vh) (HEK293T-Rex cells; PERK target gene): 8.2 fold | ERdj3 mRNA-Seq fold change (relative to Vh) (HEK293T-Rex cells; XBP1s- or ATF6-target gene): 4.0 fold | HYOU1 mRNA-Seq fold change (relative to Vh) (HEK293T-Rex cells; XBP1s- or ATF6-target gene): 6.1 fold | p58IPK mRNA-Seq fold change (relative to Vh) (HEK293T-Rex cells; XBP1s- or ATF6-target gene): 3.9 fold | DNAJC10 mRNA-Seq fold change (relative to Vh) (HEK293T-Rex cells; XBP1s-selective gene): 2.1 fold | HSPA13 mRNA-Seq fold change (relative to Vh) (HEK293T-Rex cells; XBP1s-selective gene): 4.2 fold | SEC24D mRNA-Seq fold change (relative to Vh) (HEK293T-Rex cells; XBP1s-selective gene): 6.6 fold | accumulation of [35S]-labeled protein in media (total secreted proteome) [5]: significantly impaired | ^FTTTR^WT secretion (in words) (^FTTTR^WT): reduced | ^FTTTR^A25T secretion (in words) (^FTTTR^A25T): reduced | ERSE-FLuc activation on co-addition of the S1P inhibitor PF-429242 ([2]; PF-429242 10 μM, 18 h, regulators 10 μM, Tg 500 nM): impeded

Cc1cc(C)c(OCC(=O)N/N=C/c2ccc(Cl)c(O)c2)c(Br)c1 [Compound 258]
% ERSE-FLuc activation [1]: 28.6 ± 6.1% | % XBP1-RLuc activation [4]: 32.6 ± 1.0%

COc1ccc(CCC(=O)Nc2cc(C)ccc2O)cc1 [RP14]
ERSE reporter activity relative to 147 [2]: slightly decrease or do not change

Cc1ccc(O)c(NC(=O)CCc2ccccc2Cl)c1 [RP26]
ERSE reporter activity relative to 147 [2]: increase
